The text below walks through data of patent publication US20250154138A1, “Small Molecule IL-17A Modulators” (BeiGene, Ltd., priority 2022, published 2025).

Assay [1] has as its target human IL-17A / human IL-17RA (Homo sapiens (Human), UniProt Q16552). The assay can be described thus: Human IL-17A biochemical assay (HTRF, blocking of IL-17A binding to IL-17RA). The following applies: 0.4 nM IL-17A, 0.3 nM IL-17RA, max compound concentration 10 uM. The gist of the method: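 0.4 nM hIL-17A + cpd (10 uM top, 2.7x, 10 pt), 3 h RT, HEPES pH 7.5 buffer w/ BSA, DTT, Tween 20; + 0.3 nM hIL-17RA 1 h RT; Tb/XL665 Abs 1 h; HTRF 620/665 ratio; 4PL IC50.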
Background: Time-resolved FRET reads energy transfer from a long-lived donor to a nearby acceptor.

Assay [2] has as its system IL-17-induced GROα secretion from HT-29 cells. Kind of assay: GROα release assay in human colorectal adenocarcinoma epithelial cell (HT-29, ELISA). The following applies: Homo sapiens, HT-29, 48 h, 10 ng/mL IL-17A, highest concentration 10 μM, read-out: Cellular assay HT29 cell/CXCL1 IC50. The class given is cell-based. The gist of the method: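 HT-29 cells were exposed 48 h at 37°C to IL-17A (final 10 ng/mL) preincubated 15 min with compound (4-fold dilutions, top 10 μM). Secreted GROα was quantified by ELISA against a standard curve, and IC50 obtained by four-parameter fitting.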
A general note: ELISA stands for enzyme-linked immunosorbent assay.

Chain of human IL-17A / human IL-17RA (Q16552 24-155): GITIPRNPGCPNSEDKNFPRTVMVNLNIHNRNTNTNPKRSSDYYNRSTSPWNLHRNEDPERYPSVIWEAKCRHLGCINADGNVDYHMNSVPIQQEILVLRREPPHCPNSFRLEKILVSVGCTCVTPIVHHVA

Take `CNC(=O)C1(N2C[C@@H](C(C)C)NC2=O)CCc2cc3[nH]c([C@@H](NC(=O)c4ccnn4C)C4CCCCC4)nc3cc2C1` (stereo partly drawn) [Example 123, 2-((S)-cyclohexyl(1-methyl-1H-pyrazole-5-carboxamido)methyl)-6-((R)-4-isopropyl-2-oxoimidazolidin-1-yl)-N-methyl-5,6,7,8-tetrahydro-1H-naphtho[2,3-d]imidazole-6-carboxamide]: the figures for the IC50 in assay [1] and in assay [2] were 441 nM and 61.6 nM, respectively.
The corresponding values for `Cc1nonc1C(=O)NC(C(=O)Nc1ccc2c(c1)CC(N1C[C@@H](C(F)(F)F)NC1=O)C2)C1Cc2ccc(Cl)cc2C2(CC2)C1` (stereo partly drawn) [Example 227, N-(1-(7′-chloro-3′,4′-dihydro-2′H-spiro[cyclopropane-1,1′-naphthalen]-3′-yl)-2-oxo-2-((2-((S)-2-oxo-4-(trifluoromethyl)imidazolidin-1-yl)-2,3-dihydro-1H-inden-5-yl)amino)ethyl)-4-methyl-1,2,5-oxadiazole-3-carboxamide] are 112 nM and 168 nM.
For `CNC(=O)C1(N2C[C@@H](C(C)C)NC2=O)Cc2cc(F)c(NC(=O)[C@@H](NC(=O)c3ccnn3C)C3CCCCC3)cc2C1` (stereo partly drawn) [Example 119, N-((1S)-1-cyclohexyl-2-((6-fluoro-2-((R)-4-isopropyl-2-oxoimidazolidin-1-yl)-2-(methylcarbamoyl)-2,3-dihydro-1H-inden-5-yl)amino)-2-oxoethyl)-1-methyl-1H-pyrazole-5-carboxamide], the IC50 was 73 nM in assay [1] and 144 nM in assay [2].
For `CNC(=O)C1(N2C[C@@H](C(C)C)NC2=O)Cc2ccc(NC(=O)[C@H](Cc3ccc(Cl)cc3)NC(=O)c3ccnn3C)cc2C1` (stereo partly drawn) [Example 204, N-((2S)-3-(4-chlorophenyl)-1-((2-((R)-4-isopropyl-2-oxoimidazolidin-1-yl)-2-(methylcarbamoyl)-2,3-dihydro-1H-inden-5-yl)amino)-1-oxopropan-2-yl)-1-methyl-1H-pyrazole-5-carboxamide] the same measures were 406 nM and 2240 nM.
On to `CNC(=O)C1(N2CC3(CC3)CNC2=O)Cc2ccc(NC(=O)[C@@H](NC(=O)C(F)(F)c3cccc(C#N)c3)C3CCCCC3)cc2C1` (stereo partly drawn) [Example 158, 5-((S)-2-(2-(3-cyanophenyl)-2,2-difluoroacetamido)-2-cyclohexylacetamido)-N-methyl-2-(6-oxo-5,7-diazaspiro[2.5]octan-5-yl)-2,3-dihydro-1H-indene-2-carboxamide], for which the IC50 is 123 nM in assay [1] and 48.5 nM in assay [2].
For `CNC(=O)C1(N2C[C@@H](C(C)C)NC2=O)Cc2ccc(NC(=O)[C@@H](NC(=O)c3nonc3C)C3CCCCC3)cc2C1` (stereo partly drawn) [Example 40, N-((1S)-1-cyclohexyl-2-((2-((R)-4-isopropyl-2-oxoimidazolidin-1-yl)-2-(methylcarbamoyl)-2,3-dihydro-1H-inden-5-yl)amino)-2-oxoethyl)-4-methyl-1,2,5-oxadiazole-3-carboxamide] the same measures were 25 nM and 143 nM.
As for `Cc1nonc1C(=O)N[C@H](C(=O)Nc1ccc2c(c1)CC(N1C[C@@H](C(F)(F)F)NC1=O)C2)C1CCC(F)(F)CC1` (stereo partly drawn) [Example 178, N-((1S)-1-(4,4-difluorocyclohexyl)-2-oxo-2-((2-((S)-2-oxo-4-(trifluoromethyl)imidazolidin-1-yl)-2,3-dihydro-1H-inden-5-yl)amino)ethyl)-4-methyl-1,2,5-oxadiazole-3-carboxamide], the IC50 came to 3650 nM in assay [1] and 2210 nM in assay [2].
The corresponding values for `Cc1nonc1C(=O)N[C@H](C(=O)Nc1ccc2c(c1)CC(C(=O)NC1CCC(F)(F)C1)(N1CC3(CC3)CNC1=O)C2)C1CCC(F)(F)CC1` (stereo partly drawn) [Example 190, N-((1S)-1-(4,4-difluorocyclohexyl)-2-((2-((3,3-difluorocyclopentyl)carbamoyl)-2-(6-oxo-5,7-diazaspiro[2.5]octan-5-yl)-2,3-dihydro-1H-inden-5-yl)amino)-2-oxoethyl)-4-methyl-1,2,5-oxadiazole-3-carboxamide] are 87.1 nM and 139 nM.
For `CNC(=O)C1(N2CC(C)CNC2=O)Cc2ccc(NC(=O)[C@@H](NC(=O)c3ccnn3C)C3CCCCC3)cc2C1` (stereo partly drawn) [Example 98, N-((1S)-1-cyclohexyl-2-((2-(5-methyl-2-oxotetrahydropyrimidin-1(2H)-yl)-2-(methylcarbamoyl)-2,3-dihydro-1H-inden-5-yl)amino)-2-oxoethyl)-1-methyl-1H-pyrazole-5-carboxamide] the same measures were 628 nM and 3280 nM.
The corresponding values for `CNC(=O)C1(N2C[C@@H](Cc3ccc(C)cc3)NC2=O)Cc2ccc(NC(=O)[C@@H](NC(=O)c3ccnn3C)C3CCCCC3)cc2C1` (stereo partly drawn) [Example 62, N-((1S)-1-cyclohexyl-2-((2-((R)-4-(4-methylbenzyl)-2-oxoimidazolidin-1-yl)-2-(methylcarbamoyl)-2,3-dihydro-1H-inden-5-yl)amino)-2-oxoethyl)-1-methyl-1H-pyrazole-5-carboxamide] are 24 nM and 212 nM.
As for `CNC(=O)C1(N2CC3(CNC2=O)CC(F)(F)C3)Cc2ccc(NC(=O)[C@@H](NC(=O)c3ccnn3C)C3CCCCC3)cc2C1` (stereo partly drawn) [Example 174, N-((1S)-1-cyclohexyl-2-((2-(2,2-difluoro-7-oxo-6,8-diazaspiro[3.5]nonan-6-yl)-2-(methylcarbamoyl)-2,3-dihydro-1H-inden-5-yl)amino)-2-oxoethyl)-1-methyl-1H-pyrazole-5-carboxamide], the results for the IC50 in assay [1] and in assay [2] were 264 nM and 485 nM, respectively.
For `CNC(=O)C1(N2CC3(CC3)CNC2=O)Cc2ccc(NC(=O)[C@@H](NC(=O)c3ccnn3C3CC3)C3CCCCC3)cc2C1` (stereo partly drawn) [Example 141, N-((1S)-1-cyclohexyl-2-((2-(methylcarbamoyl)-2-(6-oxo-5,7-diazaspiro[2.5]octan-5-yl)-2,3-dihydro-1H-inden-5-yl)amino)-2-oxoethyl)-1-cyclopropyl-1H-pyrazole-5-carboxamide] the same measures were 16 nM and 41.1 nM.
For `CC(C)[C@@H]1CN(C2(C(=O)Nc3ccccc3)Cc3ccc(NC(=O)[C@@H](NC(=O)c4ccnn4C(C)C)C(C4CC4)C4CC4)cc3C2)C(=O)N1` (stereo partly drawn) [Example 235, N-((2S)-1,1-dicyclopropyl-3-((2-((R)-4-isopropyl-2-oxoimidazolidin-1-yl)-2-(phenylcarbamoyl)-2,3-dihydro-1H-inden-5-yl)amino)-3-oxopropan-2-yl)-1-isopropyl-1H-pyrazole-5-carboxamide] the same measures were 229 nM and 214 nM.
For `Cc1ccccc1NC(=O)C1(N2C[C@@H](C(C)C)NC2=O)Cc2ccc(NC(=O)[C@@H](NC(=O)c3nonc3C)C3CCC(F)(F)CC3)cc2C1` (stereo partly drawn) [Example 253, N-((1S)-1-(4,4-difluorocyclohexyl)-2-((2-((R)-4-isopropyl-2-oxoimidazolidin-1-yl)-2-(o-tolylcarbamoyl)-2,3-dihydro-1H-inden-5-yl)amino)-2-oxoethyl)-4-methyl-1,2,5-oxadiazole-3-carboxamide] the same measures were 355 nM and 331 nM.
`Cc1cccc(NC(=O)C2(N3CC4(CC4)CNC3=O)Cc3ccc(NC(=O)[C@@H](NC(=O)c4nonc4C)C4CCC(F)(F)CC4)cc3C2)c1` (stereo partly drawn) [Example 229, N-((1S)-1-(4,4-difluorocyclohexyl)-2-oxo-2-((2-(6-oxo-5,7-diazaspiro[2.5]octan-5-yl)-2-(m-tolylcarbamoyl)-2,3-dihydro-1H-inden-5-yl)amino)ethyl)-4-methyl-1,2,5-oxadiazole-3-carboxamide]: the values for the IC50 in assay [1] and in assay [2] were 28.6 nM and 85.1 nM, respectively.
Take `CNC(=O)C1(N2CC(C(C)C)NC2=O)Cc2cc3nc([C@@H](NC(=O)c4ccnn4C)C4CCCCC4)[nH]c3cc2C1` (stereo partly drawn) [Example 28, 2-((S)-cyclohexyl(1-methyl-1H-pyrazole-5-carboxamido)methyl)-6-(4-isopropyl-2-oxoimidazolidin-1-yl)-N-methyl-1,5,6,7-tetrahydroindeno[5,6-d]imidazole-6-carboxamide]: the IC50 came out at 394 nM in assay [1] and 76.5 nM in assay [2].
For `CNC(=O)C1(N2C[C@@H](C(C)C)NC2=O)Cc2ccc(NC(=O)[C@@H](NC(=O)c3nonc3C)C(C3CC3)C3CC3)cc2C1` (stereo partly drawn) [Example 248, N-((2S)-1,1-dicyclopropyl-3-((2-((R)-4-isopropyl-2-oxoimidazolidin-1-yl)-2-(methylcarbamoyl)-2,3-dihydro-1H-inden-5-yl)amino)-3-oxopropan-2-yl)-4-methyl-1,2,5-oxadiazole-3-carboxamide], the IC50 in assay [1] came out at 126 nM; in assay [2], 427 nM.
Regarding `CNC(=O)C1(N2C[C@@H](C(C)C)NC2=O)Cc2ccc(NC(=O)C(NC(=O)c3ccnn3C)C3CCC4(CC3)CC4)cc2C1` (stereo partly drawn) [Example 112, N-(2-((2-((R)-4-isopropyl-2-oxoimidazolidin-1-yl)-2-(methylcarbamoyl)-2,3-dihydro-1H-inden-5-yl)amino)-2-oxo-1-(spiro[2.5]octan-6-yl)ethyl)-1-methyl-1H-pyrazole-5-carboxamide], the values for the IC50 in assay [1] and in assay [2] were 41 nM and 181 nM, respectively.
For the compound `Cn1nccc1C(=O)N[C@H](C(=O)Nc1ccc2c(c1)CC(C(=O)C(F)(F)F)(N1CC3(CC3)CNC1=O)C2)C1CCCCC1` (stereo partly drawn) [Example 193, N-((1S)-1-cyclohexyl-2-oxo-2-((2-(6-oxo-5,7-diazaspiro[2.5]octan-5-yl)-2-(2,2,2-trifluoroacetyl)-2,3-dihydro-1H-inden-5-yl)amino)ethyl)-1-methyl-1H-pyrazole-5-carboxamide], the results for the IC50 in assay [1] and in assay [2] were 50.7 nM and 140 nM, respectively.
